The test system of one data set is BChE. Also on record: method as in PMID 17196712, PMID 16868793, PMID 20205672, PMID 19199870. The following applies: at therapeutic concentrations; cited from earlier work.
The subject of the next data set is human recombinant ChAT. The data set is described as follows: In vitro single-concentration screening against choline acetyltransferase. As to conditions: single concentration 100 μM. In kind it is biochemical. How it is done:
(§1) All of the drugs were tested at a final concentration of 100 μM.

In data set [1] the target is T1, human plasma BChE (Homo sapiens, UniProt P06276).
T1 construct: 25 μL/well of a 1:450 diluted solution of pooled human plasma; from tissue; host or cells: pooled human plasma, diluted 1:450, BChE not purified
T1 sequence (P06276 29-602): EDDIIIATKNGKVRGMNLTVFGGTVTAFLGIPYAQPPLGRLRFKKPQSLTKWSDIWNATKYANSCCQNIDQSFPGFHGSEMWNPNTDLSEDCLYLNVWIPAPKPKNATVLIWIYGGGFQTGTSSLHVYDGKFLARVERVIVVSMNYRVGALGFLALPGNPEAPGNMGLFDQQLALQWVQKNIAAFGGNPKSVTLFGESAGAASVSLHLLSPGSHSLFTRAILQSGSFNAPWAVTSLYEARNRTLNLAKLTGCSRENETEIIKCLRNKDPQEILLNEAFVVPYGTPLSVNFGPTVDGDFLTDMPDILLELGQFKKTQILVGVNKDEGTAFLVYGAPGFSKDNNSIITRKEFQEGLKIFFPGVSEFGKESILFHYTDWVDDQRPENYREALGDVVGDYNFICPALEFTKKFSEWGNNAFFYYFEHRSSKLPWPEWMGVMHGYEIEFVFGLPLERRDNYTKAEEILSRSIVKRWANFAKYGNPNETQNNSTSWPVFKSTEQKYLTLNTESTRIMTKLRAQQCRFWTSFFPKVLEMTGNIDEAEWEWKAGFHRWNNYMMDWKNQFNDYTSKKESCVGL
The data set is described as follows: biochemical. As to conditions: for Ki: inhibition constant (Ki) against human BChE. The text has this: (§2) The screening of the in silico hits toward the BChE and AChE enzymatic activity was done by an adapted high-throughput assay version of Ellman′s colorimetric assay.[59],[60] The reagents, butyrylthiocholine iodide (BTC), acetylthiocholine iodide (ATC), and 5,5′-dithiobis(2-nitrobenzoic acid) (DTNB), were purchased from Sigma-Aldrich (St. Louis, MO). The modified assay details are as previously described.[6],[44] The main modification concerned the high-throughput adaptation of the assay for use in 384-well plates. Briefly, 25 μL/well of a 1:450 diluted solution of pooled human plasma and 1:768 diluted (3.5 ng/mL final concentration) purified recombinant human AChE protein (Sigma, Cat no. C1682) was used for measurement of the BChE and AChE activity, respectively. These enzymes’ concentrations were used since they are representative of the activity of these enzymes in the human cerebrospinal fluid (CSF).
(§3) For BChE, the final BTC concentrations in the wells ranged from 5 mM to […], which were prepared as a 2-fold serial dilution. For AChE, the final ATC concentrations in the wells ranged from 0.5 mM to […], prepared as a 2-fold serial dilution series.
(§4) In all enzyme inhibition kinetic assays, the concentrations of AChE and BChE were chosen so that the enzyme activities were representative of the activity of these enzymes in the human CSF, which is about 20 and 10 nmol/min/mL CSF for AChE and BChE, respectively.[49]
(§5) For the enzyme inhibition kinetic analyses, the order of steps was as follows: (1) 25 μL/well of the compound or the vehicle control was added in quadruplicates, with respect to each compound concentration, in a 384-well plate. (2) Then, 25 μL of each substrate concentration was added to the wells in quadruples. (3) The reaction was then started by adding 25 μL of a master mix to all wells, containing the enzyme working solution and DTNB. The final concentration of the enzyme and DTNB as well as the buffer composition was the same as mentioned above for the screening assay. Then, the plate was immediately placed in the microplate spectrophotometer reader (Infinite M1000, Tecan) and the changes in the absorbance were continuously monitored at 2 min intervals for 15–20 min at 412 nm wavelength. The rate of the enzyme activity was extracted as the slope of the initial linear part of the kinetic reaction curves.
The data were then transferred and processed using GraphPad Prism 9 analysis software.[15] The half-maximal inhibitory concentration (IC50) values were calculated by plotting the percentage enzyme activity versus the log concentrations of the compound. The inhibitory constant (Ki) values were determined from the enzyme inhibition kinetic analyses using the nonlinear regression function in the software. A statistical comparison of the ligand’s mode of activity was also done using GraphPad software between the competitive equation versus the mixed-competitive, noncompetitive, and uncompetitive equations.[61] A competitive mode of action means that the inhibitor reversibly binds to the substrate′s binding site. Thus, the inhibition of the enzyme is modifiable by a high concentration of the substrate via displacement. […] When the behavior of a ligand is not fully uniform, and the mixed-competitive fitting equation is statistically the best fitting option, the ligand is called a mixed-competitive one. This is determined through a general equation that includes the other three modes of actions. Through this equation, the software provides an additional parameter, called α, which determines the mechanism of action of the inhibitor. For instance, when α is equal to one, the inhibitor′s affinity for the free enzyme and the enzyme–substrate complex is equal, i.e., the inhibitor behaves mainly noncompetitively. […] When α is very large, the inhibitor behaves mainly as a competitive ligand. A very small α (but not <0) is indicative of an uncompetitive mode of action.[61]

Data set [2] can be described thus: Plasma / in vivo drug concentrations in humans (literature pharmacokinetics). As to conditions: using a molecular weight of 325.39.
Data set [3] concerns the target T1, human plasma BChE. The data set is described as follows: biochemical. The following applies: single concentration 100 μM. The data set is classed as biochemical. How it is done: as §1, §2
(§6) To the control wells, the vehicle solution was added to get the reference enzyme activity (100%). (2) Then, 25 μL of a working solution of BChE or AChE was added to all wells. The plate was then incubated for 10–30 min at room temperature. (3) The reaction was then started by adding 25 μL of a cocktail mix prepared in Na/K phosphate buffer to all wells, containing DTNB (final concentration 0.4 mM) and BTC (final concentration 1 mM) or ATC (final concentration 0.5 mM). The changes in the absorbance were monitored at 412 nm wavelength for 15–20 min at 1 min intervals, using a microplate spectrophotometer reader (Infinite M1000, Tecan). The rate of the enzyme activity was determined from the slope of the linear part of the kinetic reaction curves. In all steps, the working solution concentrations were 3 times of the final concentrations of each component in the final volume of 75 μL in each well. The final screening concentration of the compounds was 100 μM. […]

Data set [4] concerns the target T2, human AChE (Homo sapiens, UniProt P22303).
T2 construct: purchased Sigma C1682
The data set is described as follows: In vitro single-concentration screening, AChE activity (adapted Ellman assay). In kind it is biochemical. The following applies: read-out: inhibition of AChE activity. How it is done: as §1, §2, §6
Background: DTNB colorimetry detects thiols as they appear.

Data set [5] has as its target T2, human AChE. The data set is described as follows: IC50 and enzyme inhibition kinetic analyses on AChE. In kind it is biochemical.
From the text: as §2, §3, §4, §5
The data were then transferred and processed using GraphPad Prism 9 analysis software.[15] The half-maximal inhibitory concentration (IC50) values were calculated by plotting the percentage enzyme activity versus the log concentrations of the compound. The inhibitory constant (Ki) values were determined from the enzyme inhibition kinetic analyses using the nonlinear regression function in the software. A statistical comparison of the ligand’s mode of activity was also done using GraphPad software between the competitive equation versus the mixed-competitive, noncompetitive, and uncompetitive equations.[61] A competitive mode of action means that the inhibitor reversibly binds to the substrate′s binding site. Thus, the inhibition of the enzyme is modifiable by a high concentration of the substrate via displacement. […] In the case of an uncompetitive mode of activity, the inhibitor has an affinity to the enzyme–substrate complex, but not the free enzyme. When the behavior of a ligand is not fully uniform, and the mixed-competitive fitting equation is statistically the best fitting option, the ligand is called a mixed-competitive one. This is determined through a general equation that includes the other three modes of actions. Through this equation, the software provides an additional parameter, called α, which determines the mechanism of action of the inhibitor. For instance, when α is equal to one, the inhibitor′s affinity for the free enzyme and the enzyme–substrate complex is equal, i.e., the inhibitor behaves mainly noncompetitively. […] When α is very large, the inhibitor behaves mainly as a competitive ligand. […]

Data set [6] concerns muscarinic, histaminergic, α1-adrenergic, serotonergic, dopaminergic, and opioid receptors. As to conditions: radioligand binding; cited from earlier work.
The subject of another data set is human BChE. The following applies: cited from earlier work.
For data set [7], the target named is norepinephrine uptake carrier. The following applies: read-out: Ki, norepinephrine uptake carrier; radioligand binding; cited from earlier work.
The conditions of data set [8]: cited from earlier work.
For data set [9] the following is noted: cited from earlier work. This is another data set of the same source.
The mark [10] stands for this setting: high substrate range, up to 5 mM.
Where [11] appears, read: micromolar substrate range (up to 0.5 mM).
Setting [12] is: human, multiple doses of 30 mg twice daily.

Each structure is given as a SMILES string. Values joined by “and” are separate entries in the source; they are usually repeats but may differ in a detail not shown here. Identical values can stand only once. Like-named read-outs stand apart in the source and are kept apart here.

Results on 7 compounds are retold here after PMC11375813 (ACS Omega, 2024).

By Ki is commonly meant a dissociation constant, usually derived from enzyme kinetics or from competition with a known ligand. A word on the inhibition: it is the relative decrease from the control value, in per cent. Usually IC50 stands for the concentration at which inhibition is half-maximal. The term Cmax denotes the peak of the concentration-time curve.

T2 sequence (P22303 32-614): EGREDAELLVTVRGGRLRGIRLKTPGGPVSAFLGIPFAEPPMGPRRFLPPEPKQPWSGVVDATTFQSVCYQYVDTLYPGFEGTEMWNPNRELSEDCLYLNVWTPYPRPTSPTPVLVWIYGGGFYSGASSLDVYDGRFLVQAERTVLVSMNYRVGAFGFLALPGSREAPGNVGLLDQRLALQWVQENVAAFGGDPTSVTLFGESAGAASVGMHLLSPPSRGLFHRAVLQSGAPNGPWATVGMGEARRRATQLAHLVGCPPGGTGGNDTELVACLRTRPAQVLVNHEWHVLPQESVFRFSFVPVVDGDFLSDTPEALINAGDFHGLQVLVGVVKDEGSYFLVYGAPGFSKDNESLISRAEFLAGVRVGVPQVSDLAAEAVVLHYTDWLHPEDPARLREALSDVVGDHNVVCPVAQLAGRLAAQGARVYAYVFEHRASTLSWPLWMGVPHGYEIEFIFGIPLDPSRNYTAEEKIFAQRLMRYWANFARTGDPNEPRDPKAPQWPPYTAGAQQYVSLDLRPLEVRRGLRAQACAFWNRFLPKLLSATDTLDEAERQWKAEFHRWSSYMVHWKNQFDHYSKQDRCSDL

In the case of `COc1cc2c(cc1OC)C(=O)C(CC1CCN(Cc3ccccc3)CC1)C2` (stereo not drawn) [donepezil], the “inhibitory effect on BChE” value in the data set on BChE is “completely devoid of any inhibitory effect”.
Consider `CN(C)CCCC1(c2ccc(F)cc2)OCc2cc(C#N)ccc21` (stereo not drawn) [citalopram], for which, in the data set on human recombinant ChAT, the “effect on the activity of human ChAT” value is listed as “neither duloxetine nor citalopram/escitalopram affected the activity”. Also, the “BChE potency ratio Ki Escit / Ki Cit” value at human plasma BChE [1] (203/42) was determined as 4.8. Also, the “mode of inhibition of BChE” value on human plasma BChE [1] (setting [10]) was “mixed-competitive”. Further, the inhibitory constant (Ki) is 42000 nM on human plasma BChE [1] (setting [10]) and 58800 nM at human AChE [5]. For the same compound, in data set [2], the “molar concentration (maximum, from ng/mL)” value was “at most 0.86 μM”. Further, the inhibition at 100 µM on human plasma BChE [3] is roughly 55%; on human AChE [4], roughly 60%. Also, the “mode of inhibition of AChE” value on human AChE [5] (enzyme inhibition kinetics) is listed as “noncompetitive”.
With `CCN(CC)C(C)CN1c2ccccc2Sc2ccccc21` (stereo not drawn) [ethopropazine], the “mode of inhibition of BChE” value on human plasma BChE [1] (setting [10]) is listed as “mixed-competitive”; at human plasma BChE [1] (setting [11]), “Mixed-competitive inhibitor”. Also, the figures for the Ki on human plasma BChE [1] (setting [10]), at human plasma BChE [1] (low substrate concentrations (up to 0.5 mM)) and at human plasma BChE [1] (setting [11]) were 150 nM, 154 nM and roughly 155 nM, respectively.
For `CNC(=O)Oc1ccc2c(c1)[C@]1(C)CCN(C)[C@@H]1N2C` [physostigmine], on human plasma BChE [1] (setting [10]), the “mode of inhibition of BChE” value is listed as “Competitive inhibitor”.
Consider `COc1ccc2c3c1O[C@H]1C[C@@H](O)C=C[C@@]31CCN(C)C2` [galantamine], for which the “inhibitory effect on BChE” value in the data set with BChE is recorded as “completely devoid of any inhibitory effect”.
On to `CN(C)CCC[C@@]1(c2ccc(F)cc2)OCc2cc(C#N)ccc21` [escitalopram], for which the “effect on the activity of human ChAT” value in the data set on human recombinant ChAT was “neither duloxetine nor citalopram/escitalopram affected the activity”. Besides, the “mode of inhibition of BChE” value at human plasma BChE [1] (setting [10]) was “mixed-competitive”. Besides, the inhibition constant (Ki) came to 203000 nM on human plasma BChE [1] (setting [10]) and 32800 nM at human AChE [5]. Besides, the “molar concentration (maximum, from ng/mL)” value in data set [2] is “at most 0.86 μM”. The inhibition at 100 µM against human plasma BChE [3] was roughly 10%; at human AChE [4], roughly 60%. Also, at human AChE [5] (59/33), the “AChE potency ratio Ki Cit / Ki Escit” value amounted to 1.8. Besides, the “mode of inhibition of AChE” value at human AChE [5] (enzyme inhibition kinetics) is reported as “mixed-competitive”.
With `CNCC[C@H](Oc1cccc2ccccc12)c1cccs1` [duloxetine], the “effect on the activity of human ChAT” value with human recombinant ChAT was “neither duloxetine nor citalopram/escitalopram affected the activity”. Moreover, the “affinity for muscarinic, histaminergic, α1-adrenergic, serotonergic, dopaminergic, and opioid receptors” value in [6] is on record as “lacks the pharmacologically relevant affinity”. Further, the half-maximal inhibitory concentration (IC50) on human plasma BChE [1] was 9700 nM; with human BChE (read-out: IC50 against human BChE, substrate and its concentration not reported) it was 1200 nM. Further, the “times as potent as physostigmine in inhibiting BChE” value on human plasma BChE [1] (Ki 210 nM vs […] nM) is given as 4 times. In addition, the “mode of inhibition of BChE” value on human plasma BChE [1] (setting [10]) and on human plasma BChE [1] (setting [11]) was “competitive” in each case. For the same compound, the Ki is ~351 nM and 350 nM on human plasma BChE [1] (setting [10]); 210 nM on human plasma BChE [1] (setting [11]); 2.1 nM in [7]; 65500 nM and ~56500 nM on human AChE [5] (inhibition constant (Ki) against human AChE, nonlinear regression, enzyme inhibition kinetics). Besides, the “inhibition of human BChE” value with human BChE (10 μM) is listed as “over 70%”. For the same compound, the “maximum steady-state plasma concentration” value in data set [8] (setting [12]) is on record as 142 nM. The “minimum steady-state plasma concentration” value in data set [8] (setting [12]) was 84 nM. In addition, in data set [8] (normal dosages), the “normal in vivo concentration range in human patients” value is 100 to 400 nM. The peak concentration (Cmax) in data set [8] (read-out: plasma Cmax, human, single dose of 30–90 mg) was 70 to 180 nM. At human plasma BChE [3], the “inhibition of plasma BChE activity” value is reported as “fully inhibited”. The inhibition at 100 µM on human AChE [4] is roughly 35%. The “effect on cognition in the elderly” value in data set [9] (8-week double-blind placebo-controlled trial) is recorded as “improved cognition”. Besides, the “cognitive effect in patients with major depressive disorders” value in data set [9] (12-week study) is recorded as “significant cognitive improvements across several domains”. Also, the “risk of developing dementia compared to citalopram-treated patients” value in data set [9] (pharmacoepidemiologic study, patients with depression) was “significantly lower risk of developing dementia”. Further, the “mode of inhibition of AChE” value on human AChE [5] (enzyme inhibition kinetics) is reported as “mixed-competitive”.
